The test system of one assay is NL4-3 wt. Nature of the assay: MT4 Cell Antiviral Assay (NL4-3 wt). The class given is cell-based, HIV-1. Conditions: Human immunodeficiency virus 1, NL43, HIV MT4 Antiviral Cell Assay.
The subject of the next assay is V370A. Nature of the assay: MT4 Cell Antiviral Assay (V370A). The class given is cell-based, HIV-1. Conditions: Human immunodeficiency virus 1, MT4, read-out: EC50 V370A (nM).
A further assay concerns HIV-1 (strain IIIB). Nature of the assay: MT4 Cell Antiviral Assay (general statement, control). Format: cell-based. Conditions: Human immunodeficiency virus 1, IIIB, control and standard in every assay, propidium iodide readout, read-out: expected range of IC50 values. The method, then: Antiviral HIV activity and compound-induced cytotoxicity were measured in parallel by means of a propidium iodide based procedure in the human T-cell lymphotropic virus transformed cell line MT4. Aliquots of the test compounds were serially diluted in medium (RPMI 1640, 10% fetal calf serum (FCS), and gentamycin) in 96-well plates (Costar 3598) using a Cetus Pro/Pette. Exponentially growing MT4 cells were harvested and centrifuged at 1000 rpm for 10 min in a Jouan centrifuge (model CR 4 12). Cell pellets were resuspended in fresh medium (RPMI 1640, 20% FCS, 20% IL-2, and gentamycin) to a density of 5×10^5 cells/ml. […]
For propidium iodide readout, 27 μl of 5% Nonidet-40 was added to each well of the incubation plate. […] The plates were analyzed in an automated assay instrument (Screen Machine, Idexx Laboratories). […]
For MTS readout, 20 μl CellTiter 96 AQ One Solution reagent (Promega #G3582) was added to each well. At 75 minutes following the addition of MTS reagent, absobance was read at 492 nm using a Tecan Sunrise 96-well plate reader. […]
For each assay plate, the results (relative fluorescence units, rfU, or OD values) of wells containing uninfected cells or infected cells with no compound were averaged, respectively. […] Percent of cells remaining is determined by the following formula: […]

For a further assay, the system named is HIV. Conditions: cited from earlier work.

Where a name gives a salt, the structure may show the parent alone. Bounds are passed on as bounds.

In the case of `CC(C)C1=C2[C@H]3CC[C@@H]4[C@@]5(C)CC=C(C6=CCC(C(=O)O)CC6)C(C)(C)[C@@H]5CC[C@@]4(C)[C@]3(C)CC[C@@]2(C(=O)NCCN2CCC(S(C)(=O)=O)CC2)CC1=O` (stereo partly drawn) [Example 1, 4-((3aR,5aR,5bR,7aR,11aS,11bR,13aS)-1-Isopropyl-5a,5b,8,8,11a-pentamethyl-3a-((2-(4-(methylsulfonyl)piperidin-1-yl)ethyl)carbamoyl)-2-oxo-3,3a,4,5,5a,5b,6,7,7a,8,11,11a,11b,12,13,13a-hexadecahydro-2H-cyclopenta[a]chrysen-9-yl)cyclohex-3-enecarboxylic acid], the results for the EC50 in the assay with NL4-3 wt and in the assay with V370A were more than 23900 nM and more than 25000 nM, respectively. `CC(C)C1=C2[C@H]3CC[C@@H]4[C@@]5(C)CC=C(c6ccc(C(=O)O)cc6)C(C)(C)[C@@H]5CC[C@@]4(C)[C@]3(C)CC[C@@]2(C(=O)N(CCN(C)C)Cc2ccc(Cl)cc2)CC1=O` [Example 8, 4-((3aR,5aR,5bR,7aR,11aS,11bR,13aS)-3a-((4-Chlorobenzyl) (2-(dimethylamino)ethyl)carbamoyl)-1-isopropyl-5a,5b,8,8,11a-pentamethyl-2-oxo-3,3a,4,5,5a,5b,6,7,7a,8,11,11a,11b,12,13,13a-hexadecahydro-2H-cyclopenta[a]chrysen-9-yl)benzoic acid hydrochloride]: the EC50 (as a rule, the concentration at which the effect is half-maximal) in the assay with NL4-3 wt turned out to be 28.8 nM; in the assay with V370A, 64.6 nM. The corresponding values for `CC(C)C1=C2[C@H]3CC[C@@H]4[C@@]5(C)CC=C(C6=CCC(C(=O)O)CC6)C(C)(C)[C@@H]5CC[C@@]4(C)[C@]3(C)CC[C@@]2(C(=O)N(CCN(C)C)Cc2ccc(Cl)cc2)CC1=O` (stereo partly drawn) [Example 6, 4-((3aR,5aR,5bR,7aR,11aS,11bR,13aS)-3a-((4-Chlorobenzyl) (2-(dimethylamino)ethyl)carbamoyl)-1-isopropyl-5a,5b,8,8,11a-pentamethyl-2-oxo-3,3a,4,5,5a,5b,6,7,7a,8,11,11a,11b,12,13,13a-hexadecahydro-2H-cyclopenta[a]chrysen-9-yl)cyclohex-3-enecarboxylic acid] are 11.2 nM and 14.1 nM. Consider `Cc1cn([C@H]2C[C@H](N=[N+]=[N-])[C@@H](CO)O2)c(=O)[nH]c1=O` [3′-azido-3′-deoxythymidine], for which the IC50 (usually the midpoint of a concentration-inhibition curve) with HIV-1 (strain IIIB) fell in the range of 40 to 120 nM. `CC(C)C1=C2[C@H]3CC[C@@H]4[C@@]5(C)CC=C(C6=CCC(C(=O)O)CC6)C(C)(C)[C@@H]5CC[C@@]4(C)[C@]3(C)CC[C@@]2(C(=O)NCCN2CCS(=O)(=O)CC2)CC1=O` (stereo partly drawn) [Example 2, 4-((3aR,5aR,5bR,7aR,11aS,11bR,13aS)-3a-((2-(1,1-Dioxidothiomorpholino)ethyl)carbamoyl)-1-isopropyl-5a,5b,8,8,11a-pentamethyl-2-oxo-3,3a,4,5,5a,5b,6,7,7a,8,11,11a,11b,12,13,13a-hexadecahydro-2H-cyclopenta[a]chrysen-9-yl)cyclohex-3-enecarboxylic acid]: the EC50 was 3390 nM with NL4-3 wt and more than 25000 nM in the assay with V370A. For `CC(C)C1=C2[C@H]3CC[C@@H]4[C@@]5(C)CC=C(c6ccc(C(=O)O)cc6)C(C)(C)[C@@H]5CC[C@@]4(C)[C@]3(C)CC[C@@]2(C(=O)N(CCN(C)C)[C@H](C)c2ccc(Cl)cc2)CC1=O` [Example 7, 4-((3aR,5aR,5bR,7aR,11aS,11bR,13aS)-3a-(((R)-1-(4-Chlorophenyl)ethyl) (2-(dimethylamino)ethyl)carbamoyl)-1-isopropyl-5a,5b,8,8,11a-pentamethyl-2-oxo-3,3a,4,5,5a,5b,6,7,7a,8,11,11a,11b,12,13,13a-hexadecahydro-2H-cyclopenta[a]chrysen-9-yl)benzoic acid hydrochloride], in that order: 8.5 nM and 8.9 nM. For `C=C(C)[C@@H]1CC[C@]2(C(=O)O)CC[C@]3(C)[C@H](CC[C@@H]4[C@@]5(C)CC[C@H](OC(=O)CC(C)(C)C(=O)O)C(C)(C)[C@@H]5CC[C@]43C)[C@@H]12` [Bevirimat], the “reduced HIV viral load, mean” value in the assay on HIV (patients with trough levels >=20 μg/mL and without key baseline Gag polymorphisms at Q369, V370 or T371) is on record as 1.3 log10/mL. Also, the viral load reduction result in the assay with HIV (users with Gag polymorphisms at Q369, V370 or T371, versus patients without them) is recorded as “significantly lower load reductions”. On to `CC(C)C1=C2[C@H]3CC[C@@H]4[C@@]5(C)CC=C(C6=CCC(C(=O)O)CC6)C(C)(C)[C@@H]5CC[C@@]4(C)[C@]3(C)CC[C@@]2(C(=O)N(CCN(C)C)[C@H](C)c2ccc(Cl)cc2)CC1=O` (stereo partly drawn) [Example 5, 4-((3aR,5aR,5bR,7aR,11aS,11bR,13aS)-3a-(((R)-1-(4-Chlorophenyl)ethyl) (2-(dimethylamino)ethyl)carbamoyl)-1-isopropyl-5a,5b,8,8,11a-pentamethyl-2-oxo-3,3a,4,5,5a,5b,6,7,7a,8,11,11a,11b,12,13,13a-hexadecahydro-2H-cyclopenta[a]chrysen-9-yl)cyclohex-3-enecarboxylic acid], for which the EC50 in the assay on NL4-3 wt stood at 7.6 nM; in the assay on V370A, 9.5 nM.

The record behind these values is patent US20180273579A1, “COMPOUNDS WITH HIV MATURATION INHIBITORY ACTIVITY” (priority 2015, published 2018).
